These results are taken from patent US10246453B2, “Benzenesulfonamide compounds and their use as therapeutic agents” (Xenon Pharmaceuticals Inc., priority 2016, dated 2019).

Each structure is given as a SMILES string. Where a name gives a salt, the structure may show the parent alone.

One data set addresses NaV1.1 (Homo sapiens (Human), UniProt P35498). As to the kind of experiment: Sodium Influx Assay (Flux), NaV1.1. The data set is classed as cell-based. As to conditions: Trex HEK293 cells, ANG2 dye; arithmetic mean.
The target of a further data set is NaV1.5 (Homo sapiens (Human), UniProt Q14524). As to the kind of experiment: Sodium Influx Assay (Flux), NaV1.5. As to conditions: read-out: Flux NaV1.5 IC50; Trex HEK293 cells, ANG2 dye; arithmetic mean.
Sequence of NaV1.5 (Q14524 other isoform, or with tags, fused parts or gaps): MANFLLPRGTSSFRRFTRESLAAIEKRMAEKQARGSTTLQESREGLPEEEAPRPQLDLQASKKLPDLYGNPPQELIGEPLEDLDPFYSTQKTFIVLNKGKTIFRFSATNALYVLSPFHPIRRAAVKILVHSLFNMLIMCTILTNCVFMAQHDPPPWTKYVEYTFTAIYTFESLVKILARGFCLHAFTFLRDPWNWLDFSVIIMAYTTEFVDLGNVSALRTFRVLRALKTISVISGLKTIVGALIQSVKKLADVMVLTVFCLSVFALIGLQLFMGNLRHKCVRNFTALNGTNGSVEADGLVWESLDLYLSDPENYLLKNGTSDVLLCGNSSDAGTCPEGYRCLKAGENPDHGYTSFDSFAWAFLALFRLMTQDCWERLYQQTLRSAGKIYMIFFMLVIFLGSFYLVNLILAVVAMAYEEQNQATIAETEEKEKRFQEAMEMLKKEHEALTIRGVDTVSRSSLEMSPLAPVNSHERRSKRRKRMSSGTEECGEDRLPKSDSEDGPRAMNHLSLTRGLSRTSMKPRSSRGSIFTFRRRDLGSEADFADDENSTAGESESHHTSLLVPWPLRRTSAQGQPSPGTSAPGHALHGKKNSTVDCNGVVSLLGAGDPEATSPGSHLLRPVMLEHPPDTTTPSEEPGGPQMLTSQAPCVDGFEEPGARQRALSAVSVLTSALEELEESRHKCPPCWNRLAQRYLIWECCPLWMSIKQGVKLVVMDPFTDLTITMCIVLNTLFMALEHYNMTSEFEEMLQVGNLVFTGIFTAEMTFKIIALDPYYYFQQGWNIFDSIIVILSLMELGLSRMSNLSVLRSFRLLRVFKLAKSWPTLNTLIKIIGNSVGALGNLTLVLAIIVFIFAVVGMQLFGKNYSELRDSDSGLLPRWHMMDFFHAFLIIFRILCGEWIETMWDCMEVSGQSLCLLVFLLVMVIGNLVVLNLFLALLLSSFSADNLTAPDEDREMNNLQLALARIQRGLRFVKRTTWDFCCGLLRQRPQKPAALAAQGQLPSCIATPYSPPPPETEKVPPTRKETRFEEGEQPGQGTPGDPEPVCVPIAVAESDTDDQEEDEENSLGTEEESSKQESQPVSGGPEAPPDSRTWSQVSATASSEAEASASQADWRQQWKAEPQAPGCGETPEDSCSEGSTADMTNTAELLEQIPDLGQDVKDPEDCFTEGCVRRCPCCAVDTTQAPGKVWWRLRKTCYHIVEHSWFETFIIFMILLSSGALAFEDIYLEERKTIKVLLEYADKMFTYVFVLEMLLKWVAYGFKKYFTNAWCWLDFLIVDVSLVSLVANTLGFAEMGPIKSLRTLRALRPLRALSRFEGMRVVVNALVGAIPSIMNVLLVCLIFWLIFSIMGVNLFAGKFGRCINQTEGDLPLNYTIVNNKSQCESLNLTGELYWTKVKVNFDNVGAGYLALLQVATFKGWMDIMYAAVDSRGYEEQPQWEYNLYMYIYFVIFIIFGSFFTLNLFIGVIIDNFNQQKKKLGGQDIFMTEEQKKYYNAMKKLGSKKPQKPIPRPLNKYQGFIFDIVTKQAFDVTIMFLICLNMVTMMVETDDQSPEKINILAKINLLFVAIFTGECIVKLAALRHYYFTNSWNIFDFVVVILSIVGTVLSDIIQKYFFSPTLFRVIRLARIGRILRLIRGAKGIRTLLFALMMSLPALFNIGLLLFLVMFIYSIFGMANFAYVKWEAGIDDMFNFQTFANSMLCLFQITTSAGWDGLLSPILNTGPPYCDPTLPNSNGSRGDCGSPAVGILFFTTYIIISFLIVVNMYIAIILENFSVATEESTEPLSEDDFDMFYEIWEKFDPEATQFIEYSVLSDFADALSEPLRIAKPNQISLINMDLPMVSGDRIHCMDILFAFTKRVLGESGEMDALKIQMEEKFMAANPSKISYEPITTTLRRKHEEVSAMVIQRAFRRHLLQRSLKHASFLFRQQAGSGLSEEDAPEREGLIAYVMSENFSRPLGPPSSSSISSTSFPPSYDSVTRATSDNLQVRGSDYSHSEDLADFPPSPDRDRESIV
The target of another data set is NaV1.6 (Homo sapiens (Human), UniProt Q9UQD0). The experiment in a line: Sodium Influx Assay (Flux), NaV1.6. As to conditions: read-out: Flux NaV1.6 IC50; Trex HEK293 cells, ANG2 dye; arithmetic mean.

In the case of `C[C@H](c1cc(C(F)F)ccc1F)N1CCC(Oc2ccc(S(=O)(=O)Nc3cscn3)cc2Cl)CC1` [Example 292, (R)-3-chloro-4-((1-(1-(5-(difluoromethyl)-2-fluorophenyl)ethyl)piperidin-4-yl)oxy)-N-(thiazol-4-yl)benzenesulfonamide formate], the IC50 on NaV1.1 was determined as 3.79 µM; on NaV1.5 it was 1.88 µM; at NaV1.6, 2.78 µM.
Taken in the same sequence, the figures for `CN(c1cc(F)c(S(=O)(=O)Nc2cscn2)cc1F)[C@H]1CCN(Cc2ccccc2)C1` [Example 293, (S)-4-((1-benzylpyrrolidin-3-yl)(methyl)amino)-2,5-difluoro-N-(thiazol-4-yl)benzenesulfonamide 2,2,2-trifluoroacetate] were greater than 30 µM, greater than 30 µM and 10.9 µM.
The corresponding values for `CN(c1ccc(S(=O)(=O)Nc2cscn2)cc1C(F)(F)F)[C@H]1CCN(Cc2ccccc2)C1` [Example 294, (S)-4-((1-benzylpyrrolidin-3-yl)(methyl)amino)-N-(thiazol-4-yl)-3-(trifluoromethyl)benzenesulfonamide formate] are 15.7 µM, 16.4 µM and 2.35 µM.
The corresponding values for `Cc1c(OC2CCN(Cc3ccccc3)CC2)ccc(S(=O)(=O)Nc2cscn2)c1F` [Example 299, 4-((1-benzylpiperidin-4-yl)oxy)-2-fluoro-3-methyl-N-(thiazol-4-yl)benzenesulfonamide hydrochloride] are greater than 30 µM, 26.6 µM and 0.324 µM.
As for `C[C@@H](c1ccccc1)N1CCC(Oc2ccc(S(=O)(=O)Nc3ccncn3)cc2Cl)CC1` [Example 301, (S)-3-chloro-4-((1-(1-phenylethyl)piperidin-4-yl)oxy)-N-(pyrimidin-4-yl)benzenesulfonamide], the IC50 against NaV1.1 is greater than 30 µM; at NaV1.5 it was greater than 30 µM; at NaV1.6 it was 2.14 µM.
Turning to `Cc1c(N(C)[C@H]2CCN(Cc3ccccc3)C2)cc(F)c(S(=O)(=O)Nc2ccc(F)cn2)c1F` [Example 302, (S)-4-((1-benzylpyrrolidin-3-yl)(methyl)amino)-2,6-difluoro-N-(5-fluoropyridin-2-yl)-3-methylbenzenesulfonamide formate], the values for the half-inhibitory concentration (IC50) on NaV1.1, on NaV1.5 and at NaV1.6 were 9.55 µM, 28.9 µM and 1.16 µM, respectively.
Taken in the same sequence, the figures for `O=S(=O)(Nc1cscn1)c1ccc(OC2CCN(C3(c4ccccc4)CC3)CC2)c(Cl)c1` [Example 303, 3-chloro-4-((1-(1-phenylcyclopropyl)piperidin-4-yl)oxy)-N-(thiazol-4-yl)benzenesulfonamide] were 7.06 µM, 4.62 µM and 2.44 µM.
Taken in the same sequence, the figures for `C[C@H](c1ccccc1)N1CCC(Oc2ccc(S(=O)(=O)Nc3ncc(F)cn3)cc2Cl)CC1` [Example 304, (R)-3-chloro-N-(5-fluoropyrimidin-2-yl)-4-((1-(1-phenylethyl)piperidin-4-yl)oxy)benzenesulfonamide] were greater than 30 µM, greater than 30 µM and 2.48 µM.
The corresponding values for `Cc1cc(S(=O)(=O)Nc2ccc(F)cn2)c(F)cc1N(C)[C@H]1CCN(Cc2ccccc2)C1` [Example 306, (S)-4-((1-benzylpyrrolidin-3-yl)(methyl)amino)-2-fluoro-N-(5-fluoropyridin-2-yl)-5-methylbenzenesulfonamide] are 6.73 µM, 11.9 µM and 4.56 µM.
As to `Cc1cc(S(=O)(=O)Nc2cnsc2)c(F)cc1N(C)[C@H]1CCN(Cc2ccccc2)C1` [Example 307, (S)-4-((1-benzylpyrrolidin-3-yl)(methyl)amino)-2-fluoro-N-(isothiazol-4-yl)-5-methyl benzenesulfonamide formate], the IC50 against NaV1.1 amounted to 4.11 µM; at NaV1.5, 9.79 µM; on NaV1.6, 5.31 µM.
Taken in the same sequence, the figures for `Cc1cc(S(=O)(=O)Nc2cccc(F)n2)c(F)cc1N(C)[C@H]1CCN(Cc2ccccc2)C1` [Example 308, (S)-4-((1-benzylpyrrolidin-3-yl)(methyl)amino)-2-fluoro-N-(6-fluoropyridin-2-yl)-5-methylbenzenesulfonamide] were 24.7 µM, greater than 30 µM and 1.47 µM.
Taken in the same sequence, the figures for `CCN(c1cc(F)c(S(=O)(=O)Nc2cscn2)cc1C)[C@H]1CCN(Cc2ccccc2)C1` [Example 312, (S)-4-((1-benzylpyrrolidin-3-yl)(ethyl)amino)-2-fluoro-5-methyl-N-(thiazol-4-yl)benzenesulfonamide 2,2,2-trifluoroacetate] were 10.2 µM, 6.45 µM and 2.77 µM.
The corresponding values for `C[C@H](c1ccccc1)N1CCC(Oc2ccc(S(=O)(=O)Nc3cscn3)c(F)c2F)CC1` [Example 313, (R)-2,3-difluoro-4-((1-(1-phenylethyl)piperidin-4-yl)oxy)-N-(thiazol-4-yl)benzenesulfonamide formate] are 29.6 µM, greater than 30 µM and 0.936 µM.
Regarding `Cc1ccc(F)c(CN2CC[C@H](N(C)c3cc(F)c(S(=O)(=O)Nc4cscn4)cc3Cl)C2)n1` [Example 314, (S)-5-chloro-2-fluoro-4-((1-((3-fluoro-6-methylpyridin-2-yl)methyl)pyrrolidin-3-yl)(methyl)amino)-N-(thiazol-4-yl)benzenesulfonamide], the 50% inhibitory concentration (IC50) was greater than 30 µM at NaV1.1, greater than 30 µM on NaV1.5 and 0.73 µM at NaV1.6.
With `CN(c1cc(F)c(S(=O)(=O)Nc2cscn2)cc1Cl)[C@H]1CCN(Cc2cccc(N3CCC3)n2)C1` [Example 317, (S)-4-((1-((6-(azetidin-1-yl)pyridin-2-yl)methyl)pyrrolidin-3-yl)(methyl)amino)-5-chloro-2-fluoro-N-(thiazol-4-yl)benzenesulfonamide 2,2,2-trifluoroacetate], the IC50 on NaV1.1 was determined as 9.89 µM; on NaV1.5, 8.12 µM; on NaV1.6, 1.03 µM.
Taken in the same sequence, the figures for `Cc1c(N(C)[C@H]2CCN(Cc3cc(F)ccc3F)C2)ccc(S(=O)(=O)Nc2cscn2)c1F` [Example 322, (S)-4-((1-(2,5-difluorobenzyl)-pyrrolidin-3-yl)(methyl)amino)-2-fluoro-3-methyl-N-(thiazol-4-yl)benzenesulfonamide 2,2,2-trifluoroacetate] were 6.02 µM, 7.35 µM and 0.237 µM.
As for `Cc1c(N(C)[C@H]2CCN(Cc3cccc(C(F)F)c3)C2)ccc(S(=O)(=O)Nc2cscn2)c1F` [Example 323, (S)-4-((1-(3-(difluoromethyl)benzyl)-pyrrolidin-3-yl)(methyl)amino)-2-fluoro-3-methyl-N-(thiazol-4-yl)benzenesulfonamide], the IC50 stood at 12.3 µM at NaV1.1, 13.6 µM on NaV1.5 and 0.209 µM on NaV1.6.
Taken in the same sequence, the figures for `Cc1ccc(F)c(CN2CC[C@H](N(C)c3ccc(S(=O)(=O)Nc4cscn4)c(F)c3C)C2)n1` [Example 324, (S)-2-fluoro-4-((1-((3-fluoro-6-methylpyridin-2-yl)methyl)pyrrolidin-3-yl)(methyl)amino)-3-methyl-N-(thiazol-4-yl)benzenesulfonamide 2,2,2-trifluoroacetate] were greater than 30 µM, greater than 30 µM and 0.403 µM.
For the compound `CN(c1ccc(S(=O)(=O)Nc2ncns2)cc1Cl)[C@H]1CCN(Cc2cc(F)ccc2F)C1` [Example 325, (S)-3-chloro-4-((1-(2,5-difluorobenzyl)pyrrolidin-3-yl)(methyl)amino)-N-(1,2,4-thiadiazol-5-yl)benzenesulfonamide], the IC50 amounted to 23.2 µM against NaV1.1, 27 µM on NaV1.5 and 0.26 µM at NaV1.6.
For the compound `CN(c1ccc(S(=O)(=O)Nc2ncns2)cc1Cl)[C@H]1CCN(Cc2c(F)cccc2F)C1` [Example 326, (S)-3-chloro-4-((1-(2,6-difluorobenzyl)pyrrolidin-3-yl)(methyl)amino)-N-(1,2,4-thiadiazol-5-yl)benzenesulfonamide], the 50% inhibitory concentration (IC50) was greater than 30 µM at NaV1.1, 24.5 µM on NaV1.5 and 0.303 µM at NaV1.6.
The corresponding values for `CN(c1ccc(S(=O)(=O)Nc2cscn2)c(F)c1Cl)[C@H]1CCN(Cc2ccccc2)C1` [Example 328, (S)-4-((1-benzylpyrrolidin-3-yl)(methyl)amino)-3-chloro-2-fluoro-N-(thiazol-4-yl)benzenesulfonamide 2,2,2-trifluoroacetate] are 16.3 µM, 18.3 µM and 0.786 µM.
Taken in the same sequence, the figures for `Cc1cc(S(=O)(=O)Nc2cscn2)c(F)cc1N(C)[C@H]1CCN(Cc2cccc(F)c2F)C1` [compound 156, (S)-4-((1-(2,3-difluorobenzyl)pyrrolidin-3-yl)(methyl)amino)-2-fluoro-5-methyl-N-(thiazol-4-yl)benzenesulfonamide] were 7.8 µM, 10.3 µM and 0.298 µM.

What is called IC50 is the concentration that inhibits the measured activity by half.
